Reference: PubChem BioAssay AID248 (DTP/NCI, 2004)
“And” between values parts separate entries of the source, which are not always exact repeats. Equal values may be shown once. Toxic doses and inconclusive results are not listed.

System: L1210 leukemia ip in BDF1 mice, survival T/C
Assay: NCI In Vivo Anticancer Drug Screen. Data for tumor model L1210 Leukemia (intraperitoneal) in B6D2F1 (BDF1) mice
Conditions: endpoint: mean survival time, higher = longer survival
How it was run: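 Antitumor effect is assessed in tumor-bearing animals. Survival in the compound arm is compared with a vehicle-dosed control arm and expressed as their quotient.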

[1] = dose: 100.0 mg/kg/injection, schedule: Q04DX002 (ip), vehicle: Klucel (hydroxypropylcellulose) (HPC)
[2] = dose: 200.0 mg/kg/injection, schedule: Q04DX002 (ip), vehicle: Klucel (hydroxypropylcellulose) (HPC)
[3] = dose: 400.0 mg/kg/injection, schedule: Q04DX002 (ip), vehicle: Klucel (hydroxypropylcellulose) (HPC)
[4] = dose: 100.0 mg/kg/injection, schedule: Q01DX001 (ip), vehicle: saline with Tween-80
[5] = dose: 200.0 mg/kg/injection, schedule: Q01DX001 (ip), vehicle: saline with Tween-80
[6] = dose: 100.0 mg/kg/injection, schedule: Q01DX009 (ip), vehicle: Klucel (hydroxypropylcellulose) (HPC)
[7] = dose: 100.0 mg/kg/injection, schedule: Q04DX003 (ip), vehicle: Klucel (hydroxypropylcellulose) (HPC)
[8] = dose: 200.0 mg/kg/injection, schedule: Q01DX009 (ip), vehicle: Klucel (hydroxypropylcellulose) (HPC)
[9] = dose: 200.0 mg/kg/injection, schedule: Q04DX003 (ip), vehicle: Klucel (hydroxypropylcellulose) (HPC)
[10] = dose: 400.0 mg/kg/injection, schedule: Q01DX009 (ip), vehicle: Klucel (hydroxypropylcellulose) (HPC)
[11] = dose: 400.0 mg/kg/injection, schedule: Q04DX003 (ip), vehicle: Klucel (hydroxypropylcellulose) (HPC)
[12] = dose: 100.0 mg/kg/injection, schedule: Q01DX001 (ip), vehicle: carboxymethylcellulose (CMC)
[13] = dose: 200.0 mg/kg/injection, schedule: Q01DX001 (ip), vehicle: carboxymethylcellulose (CMC)
[14] = dose: 400.0 mg/kg/injection, schedule: Q01DX001 (ip), vehicle: carboxymethylcellulose (CMC)
[15] = dose: 75.0 mg/kg/injection, schedule: Q01DX001 (ip), vehicle: saline
[16] = dose: 150.0 mg/kg/injection, schedule: Q01DX001 (ip), vehicle: saline
[17] = dose: 100.0 mg/kg/injection, schedule: Q01DX009 (ip), vehicle: saline with Tween-80
[18] = dose: 200.0 mg/kg/injection, schedule: Q01DX009 (ip), vehicle: saline with Tween-80
[19] = dose: 400.0 mg/kg/injection, schedule: Q01DX009 (ip), vehicle: saline with Tween-80

## c1ccc2cc(C3OCC4(CCCC4)CO3)ccc2c1
[1]
  T/C: 103 % of control
[2]
  T/C: 95 % of control
[3]
  T/C: 103 % of control

## CCOC(=O)/C(=C\c1ccccc1)c1nc2ccccc2[nH]1
[1]
  T/C: 97 % of control
[2]
  T/C: 101 % of control
[3]
  T/C: 94 % of control

## O=C(O)CCCc1ccc2sc3ccccc3c2c1
[4]
  T/C: 100 % of control
[5]
  T/C: 101 % of control

## BrCc1c(CBr)c(CBr)c(CBr)c(CBr)c1CBr
[6]
  T/C: 98 % of control
[7]
  T/C: 94 % of control
[8]
  T/C: 97 % of control
[9]
  T/C: 96 % of control
[10]
  T/C: 97 % of control
[11]
  T/C: 96 % of control

## CCOC(Nc1ccc(Cl)cc1Cl)C(=O)c1ccccc1 (stereo unspecified)
dose: 100.0 mg/kg/injection, schedule: Q01DX001 (ip), vehicle: saline
  T/C: 97 % of control
dose: 200.0 mg/kg/injection, schedule: Q01DX001 (ip), vehicle: saline
  T/C: 101 % of control
dose: 400.0 mg/kg/injection, schedule: Q01DX001 (ip), vehicle: saline
  T/C: 101 % of control

## CCSC(=S)n1c2ccccc2c2ccccc21
dose: 100.0 mg/kg/injection, schedule: Q01DX001 (ip), vehicle: Klucel (hydroxypropylcellulose) (HPC)
  T/C: 98 % of control
[6]
  T/C: 101 % of control
dose: 200.0 mg/kg/injection, schedule: Q01DX001 (ip), vehicle: Klucel (hydroxypropylcellulose) (HPC)
  T/C: 101 % of control
[8]
  T/C: 96 % of control
dose: 400.0 mg/kg/injection, schedule: Q01DX001 (ip), vehicle: Klucel (hydroxypropylcellulose) (HPC)
  T/C: 92 % of control
[10]
  T/C: 101 % of control

## CCNC(=O)c1cc(NCC)nc(Cl)n1
[7]
  T/C: 97 % of control
[9]
  T/C: 94 % of control
[11]
  T/C: 101 % of control

## OCCOCCN1CCN(CCCN2c3ccccc3Sc3ccc(C(F)(F)F)cc32)CC1
dose: 1.6 mg/kg/injection, schedule: Q01DX009 (ip), vehicle: saline
  T/C: 104 % of control
dose: 6.25 mg/kg/injection, schedule: Q01DX009 (ip), vehicle: saline
  T/C: 117 % of control
dose: 9.5 mg/kg/injection, schedule: Q01DX001 (ip), vehicle: saline
  T/C: 100 % of control
dose: 12.5 mg/kg/injection, schedule: Q01DX009 (ip), vehicle: saline
  T/C: 93 % of control
dose: 12.5 mg/kg/injection, schedule: Q04DX003 (ip), vehicle: saline
  T/C: 114 % of control and 124 % of control
dose: 18.7 mg/kg/injection, schedule: Q04DX003 (ip), vehicle: saline
  T/C: 124 % of control
dose: 18.75 mg/kg/injection, schedule: Q01DX009 (ip), vehicle: saline
  T/C: 95 % of control
dose: 19.0 mg/kg/injection, schedule: Q01DX001 (ip), vehicle: saline
  T/C: 107 % of control
dose: 25.0 mg/kg/injection, schedule: Q01DX009 (ip), vehicle: saline
  T/C: 103 % of control
dose: 25.0 mg/kg/injection, schedule: Q04DX003 (ip), vehicle: saline
  T/C: 95 % of control and 118 % of control and 120 % of control
dose: 33.0 mg/kg/injection, schedule: Q04DX003 (ip), vehicle: saline
  T/C: 122 % of control
dose: 38.0 mg/kg/injection, schedule: Q01DX001 (ip), vehicle: saline
  T/C: 111 % of control
dose: 120.0 mg/kg/injection, schedule: Q04DX003 (ip), vehicle: saline
  T/C: 150 % of control
dose: 150.0 mg/kg/injection, schedule: Q04DX003 (ip), vehicle: saline
  T/C: 118 % of control
dose: 1.5 micrograms/kg/injection, schedule: Q01DX009 (ip), vehicle: saline
  T/C: 95 % of control
dose: 3.1 micrograms/kg/injection, schedule: Q01DX009 (ip), vehicle: saline
  T/C: 106 % of control
dose: 6.2 micrograms/kg/injection, schedule: Q01DX009 (ip), vehicle: saline
  T/C: 95 % of control
dose: 12.5 micrograms/kg/injection, schedule: Q01DX009 (ip), vehicle: saline
  T/C: 93 % of control
dose: 25.0 micrograms/kg/injection, schedule: Q01DX009 (ip), vehicle: saline
  T/C: 103 % of control
dose: 50.0 micrograms/kg/injection, schedule: Q01DX009 (ip), vehicle: saline
  T/C: 87 % of control
dose: 100.0 micrograms/kg/injection, schedule: Q01DX009 (ip), vehicle: saline
  T/C: 103 % of control
dose: 200.0 micrograms/kg/injection, schedule: Q01DX009 (ip), vehicle: saline
  T/C: 103 % of control

## Nc1ccccc1C(=O)O
dose: 50.0 mg/kg/injection, schedule: Q01DX001 (ip), vehicle: carboxymethylcellulose (CMC)
  T/C: 98 % of control
[12]
  T/C: 91 % of control
dose: 178.0 mg/kg/injection, schedule: Q01DX001 (ip), vehicle: carboxymethylcellulose (CMC)
  T/C: 92 % of control
[13]
  T/C: 91 % of control
dose: 267.0 mg/kg/injection, schedule: Q01DX001 (ip), vehicle: carboxymethylcellulose (CMC)
  T/C: 94 % of control
[14]
  T/C: 92 % of control
dose: 600.0 mg/kg/injection, schedule: Q01DX001 (ip), vehicle: carboxymethylcellulose (CMC)
  T/C: 92 % of control

## CCP(=O)(CC)OCCCCOP(=O)(CC)CC
dose: 75.0 mg/kg/injection, schedule: Q01DX Z (ip), vehicle: saline
  T/C: 104 % of control
dose: 100.0 mg/kg/injection, schedule: Q01DX Z (ip), vehicle: saline
  T/C: 98 % of control

## NC(=S)N/N=C/c1ccc([N+](=O)[O-])s1 (tested in a mixture with another compound)
[12]
  T/C: 92 % of control
[13]
  T/C: 97 % of control
[14]
  T/C: 94 % of control

## ClCCCNCCCCl
[15]
  T/C: 101 % of control
[16]
  T/C: 97 % of control

## CC(O)c1ccc[n+]([O-])c1 (stereo unspecified)
dose: 100.0 mg/kg/injection, schedule: Q01DX009 (ip), vehicle: saline
  T/C: 93 % of control
dose: 200.0 mg/kg/injection, schedule: Q01DX009 (ip), vehicle: saline
  T/C: 96 % of control
dose: 400.0 mg/kg/injection, schedule: Q01DX009 (ip), vehicle: saline
  T/C: 96 % of control

## CSc1ccc(NC(=S)NCCc2ccccc2)cc1
[6]
  T/C: 114 % of control
[8]
  T/C: 97 % of control
[10]
  T/C: 102 % of control

## CC1C(=O)C(Br)C2CC(O)CCC2(C)C1C (stereo unspecified)
[15]
  T/C: 100 % of control
[16]
  T/C: 94 % of control
dose: 300.0 mg/kg/injection, schedule: Q01DX001 (ip), vehicle: saline
  T/C: 89 % of control

## CSc1nnc2sc(=S)[nH]n12
[12]
  T/C: 105 % of control
[13]
  T/C: 90 % of control
[14]
  T/C: 94 % of control

## CNC(=O)C(CCC(=O)OC)NS(=O)(=O)c1ccc(C)cc1 (stereo unspecified)
[4]
  T/C: 100 % of control
[17]
  T/C: 104 % of control
[5]
  T/C: 100 % of control
[18]
  T/C: 96 % of control
dose: 400.0 mg/kg/injection, schedule: Q01DX001 (ip), vehicle: saline with Tween-80
  T/C: 100 % of control
[19]
  T/C: 104 % of control

## c1ccc2c(c1)CCC1=C2CCCC1
[17]
  T/C: 96 % of control
dose: 100.0 mg/kg/injection, schedule: Q04DX003 (ip), vehicle: saline with Tween-80
  T/C: 101 % of control
[18]
  T/C: 98 % of control
dose: 200.0 mg/kg/injection, schedule: Q04DX003 (ip), vehicle: saline with Tween-80
  T/C: 89 % of control
[19]
  T/C: 91 % of control
dose: 400.0 mg/kg/injection, schedule: Q04DX003 (ip), vehicle: saline with Tween-80
  T/C: 92 % of control

## CN(C)c1ccc(/C=N/NC(=O)CNC(=O)c2ccc(Cl)cc2Cl)cc1
dose: 50.0 mg/kg/injection, schedule: Q01DX009 (ip), vehicle: saline with Tween-80
  T/C: 86 % of control
[17]
  T/C: 88 % of control

## O=C(O)c1ccc(NC(=O)c2ccc(C(=O)Nc3ccc(C(=O)O)cc3)cc2)cc1
dose: 15.0 mg/kg/injection, schedule: Q01DX Z (ip), vehicle: methylcellulose (MC)
  T/C: 101 % of control
dose: 60.0 mg/kg/injection, schedule: Q01DX Z (ip), vehicle: methylcellulose (MC)
  T/C: 98 % of control
dose: 120.0 mg/kg/injection, schedule: Q01DX Z (ip), vehicle: methylcellulose (MC)
  T/C: 95 % of control
